Laboratory results from patent US6965035B1, “Compacted forms of halogenated hydantoins” (priority 2002, dated 2005).

Key:
Format in all cases: physicochemical
[1] = Dissolution of granules or tablets in swimming pool skimmer basket under recirculated pool water
Excerpt: A swimming pool skimmer basket was divided into two halves by means of a simple plastic partition placed across the basket diameter. One half of the basket had 50 grams of pure (wax-free) DBDMH granules placed in it. In the other half of the skimmer basket was placed 50 grams of DBDMH/1 wt % MPP-611 wax granules. […] The basket, containing both sets of granules, was introduced to the skimmer of an above-ground pool. Swimming pool water was pumped past the granules in the skimmer basket by means of the pool recirculation pump. The flow rate was around 30 gallons per minute (gpm) and the water temperature was 60° F. (15.5° C.). After 6 hours, the pump was turned off and the skimmer basket containing the partially-dissolved granules was removed. The granules were removed from their respective halves of the skimmer basket and placed in crystallizing dishes to dry overnight. Each set of granules was reweighed. The weight of the undissolved portion was subtracted from the initial weight, and the amount dissolved (the difference) was expressed in terms of % dissolved (the relative dissolution rate). Table 5 lists the relative amount dissolved for both sets of granules. The procedures described in Example 4 were repeated using pure (wax-free) DBDMH granules and DBDMH/2 wt % MPP-611 wax granules. The water temperature was 66° F. (19° C.). Table 5 lists the relative amount dissolved for both sets of granules. The skimmer basket setup described in Example 4 was used. In one half of the basket, tablets of DBDMH/3 wt % MPP-611 wax (5×24 g; total weight, 120 g; each tablet is 1 inch in diameter) were placed an equal distance apart from each other. In the other half of the basket, tablets of pure (wax-free) 1,3-bromochloro-5,5-dimethylhydantoin (BCDMH; 5×20 g; total weight, 100 g) were similarly arranged. Both sets of tablets were one inch in diameter, so the effective surface area exposed was approximately the same for each set of tablets. The skimmer basket containing the tablets was placed into the skimmer of an above-ground swimming pool. Pool water was pumped past the tablets in the skimmer basket by means of the pool recirculation pump. The flow rate was around 30 gpm, the water temperature was 82.1° F. (27.8° C.), and water was recirculated for 16 hours. The tablets were dried and re-weighed. The weight of the undissolved portion was subtracted from the initial weight, and the amount dissolved (the difference) was expressed in terms of % dissolved (the relative dissolution rate). The amount of product dissolved was 75.5 g for the BCDMH tablets and 13.4 g for the DBDMH/3 wt % MPP-611 wax tablets. The BCDMH tablets dissolved at a rate 5.6 times faster (based on weight dissolved) than the DBDMH/3 wt % MPP-611 wax tablets. Based on the respective solubility of wax-free DBDMH and BCDMH powders, a relative dissolution factor of about 2 would have been expected (with the BCDMH dissolving faster).

[2] = Peak load tolerance test of granules (Sintech 1/S compression apparatus); settings: 3.5–5 mesh cut of granules; average of ten runs; standard deviation in parentheses
Description: To minimize size effects, a 3.5–5 mesh cut of the granulated material was used in this experiment. Peak load tests were performed on DBDMH granules without wax, with 1 wt % wax, and with 2 wt % wax. The wax in both instances was micronized polyethylene wax (MPP-611). Granules of approximately the same size were selected by visual inspection; measurements of the thickness of the granules were not made because of the very irregular shapes of the granules. Peak load tolerance tests were performed utilizing a Sintech® 1/S compression apparatus (MTS Systems Corporation, Edenprairie, Minn.) equipped with Testworks software. The apparatus included a horizontal circular-shaped load cell interfaced with a computer, a digital micrometer also interfaced with the computer, and a vertical screw-driven piston disposed above the load cell and adapted to apply a downward force perpendicular to the load cell. Each granule was placed on its edge on the load cell with the piston in contact with at least a part of the upper edge of the granule. The piston often could not contact the entire upper edge of the granule due the irregular morphology of the granule. […] At the same time, the load cell continuously measured the downward force being applied to the granule, and the input of such measurements was transmitted to the computer. […]

[3] = Specific surface area of granules by nitrogen adsorption BET technique; settings: 3.5–5 mesh granules, material from recycle compaction (Runs 1–3)
Description: To minimize size effects, a 3.5–5 mesh cut of the granulated material was used in this experiment. The material used in Runs 1–3 were from recycle compaction, and the material used in Run 4 was from first-run compaction. The surface area of the granules was determined by the well-known nitrogen adsorption BET technique. The BET technique consists of (1) removing adsorbed gases from the sample with heat and vacuum, (2) adsorbing a mono-layer of nitrogen on the surface at liquid nitrogen temperature, (3) measuring the amount of adsorbed nitrogen, and (4) calculating the total surface area of the sample from an assumed cross-sectional area of nitrogen molecules. The total surface area was divided by the sample weight to yield the specific surface area. Specific surface area is defined as the exposed surface area of 1 gram of the sample tested. A Coulter Model 3100 instrument was used.

Amount dissolved ([1]; 1 inch tablets, about 30 gpm, water 82.1° F. (27.8° C.), 16 hours (text Example 6)) | Amount of product dissolved ([1]; tablets, 5×20 g BCDMH or 5×24 g DBDMH/wax, about 30 gpm, 82.1° F., 16 hours) | Dissolution rate relative to DBDMH/3 wt % MPP-611 wax tablets (based on weight dissolved) ([1]; tablets, 82.1° F., 16 hours) | Amount dissolved ([1]; 50 g granules >8 U.S. mesh, about 30 gpm, water 60° F. (15.5° C.), 6 hours (text Example 4)) | Amount dissolved ([1]; 50 g granules, about 30 gpm, water 66° F. (19° C.), 6 hours (text Example 5)) | Surface Area [3] | Structure (SMILES) | Average peak load [2]
75.5% | 75.5 g | 5.6 times faster | – | – | – | CC1(C)C(=O)N(Cl)C(=O)N1Br [BCDMH tablets (no wax), 1,3-bromochloro-5,5-dimethylhydantoin] | –
– | – | – | 44% | 60% | 5.1 m^2/g | CC1(C)C(=O)N(Br)C(=O)N1Br [DBDMH, wax-free, 1,3-dibromo-5,5-dimethylhydantoin] | 11.7 (3.4) lb.
